One series concerns rabbit eye. As to the kind of experiment: Intravitreal polypeptide toxicity in rabbit eye (ERG, clinical observations, histology). The class given is in vivo. On the procedure:
The toxicity of the polypeptides was determined by three techniques:
ERG. Electroretinograms (ERG) were carried out as a functional indicator of toxicity of a polypeptide treatment. Polypeptides were injected at 200 ug and 400 ug (twice the dose that inhibited proliferative vitreoretinopathy), and ERG measurements were performed three times in each eye at various times post-injection (1 hr to 6 weeks).
Clinical observations. Observation by indirect ophthalmoscopy and slit lamp examination were performed to probe for evidence of toxicity.
Histology. Following ERG and clinical observations, the eyes were immediately enucleated, fixed in 10% formalin, paraffin embedded, sectioned at 7 microns, and stained with hematoxylin and eosin.

The subject of series [1] is proliferative vitreoretinopathy in rabbits. The series can be described thus: Rabbit model of experimental proliferative vitreoretinopathy (intravitreal fibroblast injection). It is filed as in vivo. On the procedure:
The rabbit model for proliferative vitreoretinopathy is described in Thresher et al., Graefe's Arch. Clin. Exp. Ophthalmol., 221, 192-198 (1984). Adult Dutch Belted rabbits of both sexes were used in the study. All animals were treated according to ARVO Animal Use Guidelines. All eyes were examined prior to initiation of a study and only clinically normal animals were used.
The rabbits were anesthetized using an intramuscular injection of a mix of ketamine (30 mg/kg) and xylazine (5 mg/kg). Pupils were dilated with Mydriacyl (Tropicamide) 1% and Neosynephrine 2.5% topical drops. Topical conjunctival anesthesia was provided with Proparacaine […] drops. All procedures were performed in an approved animal surgical facility. […] This site was used for subsequent intraocular injections, preventing iatrogenic retinal tears at the injection site. An intravitreal injection of 0.4 cc millipore-filtered 100% perfluoropropane gas was administered to produce a gas compression vitrectomy. Once the expansile gas bubble had absorbed, 5-10×10^4 dermal rabbit fibroblasts with or without 200 μg of polypeptide (injection volume-0.1 cc) were injected through a 27 gauge needle into the vitreous cavity. Under indirect ophthalmoscopic visualization, the tip of the needle was placed over the optic nerve head and the cells were injected in this location.
The animals were then observed for the development of proliferative vitreoretinopathy. The final stage of retinal detachment was scored from 0 to 7 using the standard grading scale shown below (see Hida et al., Graefe's Arch. Clin. Exp. Ophthalmol., 225, 1763-1769 (1991)).
Retinal photographs were taken with a wide field fundus camera (Canon) to document the final stage of retinal detachment. Animals were sacrificed while under deep anesthesia with an intravenous injection of 1 cc of euthanasia solution. The eyes were then immediately enucleated, fixed in 10% formalin, paraffin embedded, sectioned at 7 microns, and stained with hematoxylin and eosin for histology.
Three weeks following peripheral retinal cryopexy and gas compression vitrectomy, rabbit fibroblasts incubated for 1 hr with 200 ug of laminin polypeptide R37, type IV collagen polypeptide Hep-II, or BSS (balanced saline solution; control) were injected intravitreally. One eye of each rabbit received polypeptide incubated fibroblasts and the other eye received the control cells. Eyes were examined every three days, and the degree of retinal detachment was graded on the standard scale described above.

The subject of series [2] is rabbit dermal fibroblasts. As to the kind of experiment: Fibroblast-mediated collagen gel contraction (shrinkage) assay. The class given is cell-based. The source says: As indicated above, proliferative vitreoretinopathy is the result of the proliferation and migration of fibroblasts, retinal pigment epithelial cells, and glial cells, and their organization into vitreous strands and epiretinal membranes. The vitreous strands and epiretinal membranes can contract, resulting in traction retinal detachment. The ability of rabbit dermal fibroblasts to cause contraction was examined in the collagen gel shrinkage model, which serves as an in vitro model of proliferative vitreoretinopathy (see Verdoon et al., Arch. Ophthalmol., 104, 1216-1219 (1986)). The ability of synthetic polypeptides derived from ECM molecules to inhibit contraction in the collagen gel shrinkage model using rabbit fibroblasts was also examined.
Fifty thousand rabbit dermal fibroblasts were suspended in 250 μl of fibroblast assay medium and mixed with 250 μl of Vitrogen and dispensed into the wells of a 48-well plate. The cells were preincubated with the desired polypeptide concentration (25, 50, 100, or 200 ug/ml) for one hour at 37° C. before mixing with the Vitrogen. Gelling occurred within 20 minutes after transfer of the mix of cell suspension and Vitrogen into an incubator at 37° C. with 5% CO2. The gels were overlaid with 250 μl of growth medium. All conditions were tested in duplicate wells. After 24 hours, the gels were detached from the sides of the wells by sweeping with a 27-gauge needle inserted at the interface between the plastic well and the gel (FIGS. 6-8).
Contraction of collagen gels was quantitated by use of planimetry. The gels were observed daily over the seven day period following detachment for evidence of contraction. The plates were photographed at the end of the seven days to record the amount of contraction. The contraction was measured by recording the area of each gel in each well off the photograph using a computer scanner. The area of the gels with polypeptide was compared to the area of the gels without the polypeptide. Planimetry is a two-dimensional measurement. […] The planimetry measurements accordingly underestimate the degree of contraction that actually occurred.
The collagen gels were cast with or without the incorporation of 25 ug/ml of fibronectin. […] These controls using deactivated cells indicate that cell growth and proliferation are required to effect gel shrinkage.

The source of these data is patent US6013628A, “Method for treating conditions of the eye using polypeptides” (Regents of the University of Minnesota, priority 1995, dated 2000).

No end group written: not given here.

For the sequence “LAGSCLARFSTM [Hep-II, Leu-Ala-Gly-Ser-Cys-Leu-Ala-Arg-Phe-Ser-Thr-Met]”, the Fundus appearance entry in the series on rabbit eye (6 weeks after injection of 200 ug in 0.1 ml) is listed as “indistinguishable from the control eye”. Further, the “Toxic effects by clinical observations, histopathology or ERG” value with rabbit eye (intravitreal injection of 200 ug or 400 ug) was “No toxic effects”. The “Retina appearance (stage 0-7 scale), fundus photograph” value in series [1] (200 ug with 100,000 fibroblasts, seven weeks after fibroblast injection) is recorded as “normal (Stage 0)”. Also, the “# Detached Retinas (%)” value in series [1] (Expt I: 200 ug, 50,000 cells, RD staged at day 21, control 66%) is 17%. In addition, the “# Detached Retinas” value in series [1] (Expt I: 200 ug, 50,000 cells, RD staged at day 21, total 6 eyes, control 4 of 6) was 1. In addition, the “Degree of retinal detachment” value in series [1] (fibroblasts incubated 1 hr with 200 ug polypeptide, intravitreal) is recorded as “inhibited the degree of retinal detachment”. For the same sequence, the “% Contraction” value in series [2] (200 ug type IV collagen peptide, cells preincubated 1 hr, gel surface area by planimetry at day 7, no peptide 36%) is on record as 3%. In series [2] (gels cast with and without fibronectin), the “Effect on fibroblast-mediated collagen gel contraction” value is “most potent inhibitory effects on contraction”.
